Reference: PMC6274517, “Design, Synthesis and Structure-Activity Relationships of Novel Chalcone-1,2,3-triazole-azole Derivates as Antiproliferative Agents” (Molecules, 2016)
≈ marks a conversion by molar mass, not a printed value. Read-outs that look alike come from different tables or passages of the source.

Tests used:
SK-N-SH = test: MTT antiproliferative assay, SK-N-SH; type: cell-based, human; conditions: 72 h exposure, mean ± SD of three experiments
Description: (§1) In totally, a series of novel chalcone-1,2,3-triazole-azole derivatives were successfully synthesized, and their structures characterized by ^1H-NMR, ^13C-NMR, HRMS. Their in vitro antiproliferative activities were then tested, using a MTT assay, against three selected cancer cell lines (SK-N-SH, EC-109 and MGC-803) and compared with the well-known anticancer drug 5-fluorouracil.
(§2) All synthesized compounds were evaluated for their anticancer activity against three cancer cell lines, MGC-803 (human gastric cancer cell line), SK-N-SH (human neuroendocrine cancer cell line), and […] (human esophageal cancer cell line) using MTT assay method and compared with the well-known anticancer drug 5-fluorouracil.

EC-109 = test: MTT antiproliferative assay, EC-109; type: cell-based, human; conditions: mean ± SD of three experiments
Description: as §1, §2

MGC-803 = test: MTT antiproliferative assay, MGC-803; type: cell-based, human; conditions: mean ± SD of three experiments
Description: as §1, §2

[1] = tested on: SK-N-SH, EC-109 and MGC-803; test: MTT antiproliferative assay, three cancer cell lines together; type: cell-based, human; conditions: range across EC-109, SK-N-SH, read-out: IC50 values, range over the three cancer cell lines
Description: as §1, §2

GES-1 = test: Cytotoxicity against normal GES-1 cells; type: cell-based, human; conditions: for IC50: normal human gastric epithelial cell line, 72 h exposure, mean ± SD of three experiments; for selectivity between cancer and normal cells: MGC-803 versus GES-1
Excerpt: Compounds I-14 and I-21 were further examined for possible cytotoxicity against GES-1 (normal human gastric epithelial cell line).

K562 cells = tested on: K562 cells; parameters: method as in PMID 19837593; conditions: cited from earlier work
MCF-7 = conditions: cited from earlier work
SMMC-7721 = tested on: SMMC-7721; parameters: method as in PMID 21345546; conditions: cited from earlier work
[2] = tested on: Bcl-2 and Bax in SK-N-SH cells; test: Western blot of Bcl-2 and Bax; type: cell-based, human; conditions: 48 h treatment
Description: Antiproliferative agents that induce apoptosis in cancer cells are always preferred in antitumor drug discovery. Bcl-2 associated proteins have both anti-apoptotic and pro-apoptotic effects in vrious cancer cell lines. For the high potent cytotoxic activity against SK-N-SH cell line, compound I-21 was evaluated the level of Bcl-2 (apoptotic inhibitor) and Bax (apoptotic inducer). […] Further mechanism investigations are under way and will be reported in due course.
Figure 6 Expression of Bcl-2 and Bax in SK-N-SH cells after treatment by compound I-21 for 48 h.

SK-N-SH cells = test: Apoptosis analysis with Hoechst-33258 staining; type: cell-based, human; conditions: SK-N-SH cells, 5, 10 and 20 μM; 24 h / 48 h (legend of Figure 5)
Description: To explore cytotoxicity of I-21 in SK-N-SH cells, cell apoptosis was investigated with Hoechst 33258 staining.
Figure 5 Apoptosis analysis with Hoechst-33258 staining after a 48 h treatment of I-21 in SK-N-SH cell line at 5 μM, 10 μM and 20 μM.

[3] = Homo sapiens, ECa-109, 72 h exposure
[4] = Homo sapiens, MGC-803, 72 h exposure

| Molecule | IC50 (SK-N-SH; Homo sapiens, SK-N-SH) [µM] | melting point [°C] | IC50 (EC-109; [3]) [µM] | IC50 (MGC-803; [4]) [µM] | also measured |
| --- | --- | --- | --- | --- | --- |
| O=C(/C=C/c1ccc(Cl)cc1)c1ccc(OCCCn2cc(CSc3nc4ccccc4s3)nn2)cc1 [Compound I-17] | > 100 | 172 to 174 | 9.54 ± 0.05 | 38.2 ± 0.58 | – |
| COc1cc(/C=C/C(=O)c2ccc(OCCCn3cc(CSC4=NCCS4)nn3)cc2)cc(OC)c1OC [Compound I-14, (E)-1-(4-(3-(4-(((4,5-Dihydrothiazol-2-yl)thio)methyl)-1H-1,2,3-triazol-1-yl)propoxy)phenyl)-3-(3,4,5-trimethoxyphenyl)prop-2-en-1-one] | 5.87 ± 1.05 | 169 to 171 | 3.57 ± 0.22 | 8.52 ± 0.56 | IC50 ([1]; Homo sapiens): 3.57 to 8.52 µM; IC50 (GES-1; GES1): > 64 µM; selectivity between cancer and normal cells (GES-1): good selectivity |
| COc1ccc(C(=O)/C=C/c2cc(OC)c(OC)c(OC)c2)cc1OC [Compound 2] | – | – | – | – | IC50 (K562 cells): 1.1 µM |
| O=C(/C=C/c1ccc(Cl)cc1)c1ccc(OCCCn2cc(CSc3nncs3)nn2)cc1 [Compound I-20, (E)-1-(4-(3-(4-(((1,3,4-Thiadiazol-2-yl)thio)methyl)-1H-1,2,3-triazol-1-yl)propoxy)phenyl)-3-(4-chlorophenyl)prop-2-en-1-one] | 3.75 ± 1.21 | 143 to 145 | 5.81 ± 0.21 | 46.3 ± 1.64 | – |
| O=c1[nH]cc(F)c(=O)[nH]1 [Compound 5-FU, 5-fluorouracil, reference compound] | 9.85 ± 0.76 | – | 10.3 ± 0.32 | 7.14 ± 0.28 | – |
| O=C(/C=C/c1cccnc1)c1ccc(OCCCn2cc(CSc3nc4ccccc4s3)nn2)cc1 [Compound I-18, (E)-1-(4-(3-(4-((Benzo[d]thiazol-2-ylthio)methyl)-1H-1,2,3-triazol-1-yl)propoxy)phenyl)-3-(pyridin-3-yl)prop-2-en-1-one] | 14.8 ± 0.72 | 144 to 146 | 24.6 ± 3.8 | 6.24 ± 0.05 | – |
| O=C(NCc1cn(Cc2cccc(Oc3ccccc3)c2)nn1)c1ccccn1 [Compound 4] | – | – | – | – | IC50 (MCF-7): 0.046 µM |
| Cn1nnnc1SCc1cn(CCCOc2ccc(C(=O)/C=C/c3cccs3)cc2)nn1 [Compound I-27, (E)-1-(4-(3-(4-(((1-Methyl-1H-tetrazol-5-yl)thio)methyl)-1H-1,2,3-triazol-1-yl)propoxy)phenyl)-3-(thiophen-2-yl)prop-2-en-1-one] | 29.3 ± 0.85 | 129 to 130 | > 100 | 38.1 ± 0.91 | – |
| O=C(/C=C/c1cccnc1)c1ccc(OCCCn2cc(CSc3nncs3)nn2)cc1 [Compound I-22, (E)-1-(4-(3-(4-(((1,3,4-Thiadiazol-2-yl)thio)methyl)-1H-1,2,3-triazol-1-yl)propoxy)phenyl)-3-(pyridin-3-yl)prop-2-en-1-one] | 12.4 ± 0.44 | 146 to 149 | 14.6 ± 1.21 | 4.45 ± 0.82 | – |
| Cn1nnnc1SCc1cn(CCCOc2ccc(C(=O)/C=C/c3ccc(Cl)cc3)cc2)nn1 [Compound I-24, (E)-3-(4-Chlorophenyl)-1-(4-(3-(4-(((1-methyl-1H-tetrazol-5-yl)thio)methyl)-1H-1,2,3-triazol-1-yl)propoxy)phenyl)prop-2-en-1-one] | 28.4 ± 1.59 | 149 to 150 | 24.9 ± 1.09 | 50.1 ± 0.97 | – |
| O=C(/C=C/c1ccccc1)c1ccccc1 [Compound 1] | – | – | – | – | IC50 MCF-7 (MCF-7): 6.88 µg/mL (≈ 33 µM) |
| COc1cc(/C=C/C(=O)c2ccc(OCCCn3cc(CSc4nnnn4C)nn3)cc2)cc(OC)c1OC [Compound I-25, (E)-1-(4-(3-(4-(((1-Methyl-1H-tetrazol-5-yl)thio)methyl)-1H-1,2,3-triazol-1-yl)propoxy)phenyl)-3-(3,4,5-trimethoxyphenyl)prop-2-en-1-one] | 6.98 ± 0.4 | 105 to 107 | 5.28 ± 0.56 | 5.66 ± 0.55 | – |
| O=C(/C=C/c1cccs1)c1ccc(OCCCn2cc(CSc3nc4ccccc4s3)nn2)cc1 [Compound I-19, (E)-1-(4-(3-(4-((Benzo[d]thiazol-2-ylthio)methyl)-1H-1,2,3-triazol-1-yl)propoxy)phenyl)-3-(thiophen-2-yl)prop-2-en-1-one] | 37.8 ± 0.91 | – | 38.8 ± 1.05 | 24.4 ± 0.71 | – |
| O=C(/C=C/c1ccc(Cl)cc1)c1ccc(OCCCn2cc(CSC3=NCCS3)nn2)cc1 [Compound I-13, (E)-3-(4-Chlorophenyl)-1-(4-(3-(4-(((4,5-dihydrothiazol-2-yl)thio)methyl)-1H-1,2,3-triazol-1-yl)propoxy)phenyl)prop-2-en-1-one] | 19.3 ± 0.47 | 151 to 153 | > 100 | 37.2 ± 0.85 | – |
| CN(C)CCN1C(=O)c2cccc3cc(-n4cc(-c5ccccc5)nn4)cc(c23)C1=O [Compound 3] | – | – | – | – | IC50 (MCF-7): 0.348 µM; IC50 (SMMC-7721): 0.258 µM |
| O=C(/C=C/c1cccs1)c1ccc(OCCCn2cc(CSc3nncs3)nn2)cc1 [Compound I-23, (E)-1-(4-(3-(4-(((1,3,4-Thiadiazol-2-yl)thio)methyl)-1H-1,2,3-triazol-1-yl)propoxy)phenyl)-3-(thiophen-2-yl)prop-2-en-1-one] | 21 ± 1.81 | – | 57.2 ± 1.63 | 15.1 ± 0.85 | – |
| Cn1nnnc1SCc1cn(CCCOc2ccc(C(=O)/C=C/c3cccnc3)cc2)nn1 [Compound I-26, (E)-1-(4-(3-(4-(((1-Methyl-1H-tetrazol-5-yl)thio)methyl)-1H-1,2,3-triazol-1-yl)propoxy)phenyl)-3-(pyridin-3-yl)prop-2-en-1-one] | 4.49 ± 0.45 | 151 to 153 | 11.8 ± 0.74 | 5.56 ± 0.45 | – |
| (E)-1-(4-(3-(4-(((1,3,4-Thiadiazol-2-yl)thio)methyl)-1H-1,2,3-triazol-1-yl)propoxy)phenyl)-3-(3,4,5-trimethoxyphenyl)prop-2-en-1-one [Compound I-21] | – | – | – | – | level of Bax [2]: increased the level of Bax; level of Bcl-2 [2]: reduced the level of Bcl-2; IC50 (SK-N-SH): 1.52 ± 0.3 µM; IC50 (EC-109; 72 h exposure): 10.4 ± 0.24 µM; IC50 [1]: 1.52 to 10.4 µM; IC50 (MGC-803; 72 h exposure): 4.26 ± 0.32 µM; apoptotic morphological changes (Hoechst 33258 staining) (SK-N-SH cells): characteristic apoptotic morphological changes; selectivity between cancer and normal cells (GES-1): good selectivity; IC50 (GES-1): 43.7 ± 1.35 µM |
| O=C(/C=C/c1cccnc1)c1ccc(OCCCn2cc(CSC3=NCCS3)nn2)cc1 [Compound I-15, (E)-1-(4-(3-(4-(((4,5-Dihydrothiazol-2-yl)thio)methyl)-1H-1,2,3-triazol-1-yl)propoxy)phenyl)-3-(pyridin-3-yl)prop-2-en-1-one] | 47.3 ± 1.57 | 149 to 151 | 42.36 ± 0.18 | 63.8 ± 1.17 | – |
| O=C(/C=C/c1cccs1)c1ccc(OCCCn2cc(CSC3=NCCS3)nn2)cc1 [Compound I-16, (E)-1-(4-(3-(4-(((4,5-Dihydrothiazol-2-yl)thio)methyl)-1H-1,2,3-triazol-1-yl)propoxy)phenyl)-3-(thiophen-2-yl)prop-2-en-1-one] | 11.2 ± 0.26 | 104 to 106 | 19.3 ± 0.79 | 8.69 ± 0.42 | – |
